Assay results from patent US10722514B2 (FLX Bio, Inc., priority 2017, dated 2020).

Molecular target: T1, recombinant full-length USP7 (Homo sapiens, UniProt Q93009)
T1 construct: A 25 μl reaction volume containing recombinant full-length USP7 (62 pM)
Test: USP7-mediated ubiquitin-rhodamine cleavage assay
Type: biochemical
Details: recombinant full-length USP7 62 pM; ubiquitin-rhodamine 100 nM; 30-minute incubation with compound, 1 hour reaction at room temperature; read-out: Potency: USP7 IC50
In short: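 After compound and enzyme (62 pM) sat together 30 min at RT, 100 nM fluorogenic ubiquitin-rhodamine substrate was added for 1 h protected from light. Acetic acid quenched the reaction prior to the fluorescence read.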

T1 sequence (Q93009 whole entry): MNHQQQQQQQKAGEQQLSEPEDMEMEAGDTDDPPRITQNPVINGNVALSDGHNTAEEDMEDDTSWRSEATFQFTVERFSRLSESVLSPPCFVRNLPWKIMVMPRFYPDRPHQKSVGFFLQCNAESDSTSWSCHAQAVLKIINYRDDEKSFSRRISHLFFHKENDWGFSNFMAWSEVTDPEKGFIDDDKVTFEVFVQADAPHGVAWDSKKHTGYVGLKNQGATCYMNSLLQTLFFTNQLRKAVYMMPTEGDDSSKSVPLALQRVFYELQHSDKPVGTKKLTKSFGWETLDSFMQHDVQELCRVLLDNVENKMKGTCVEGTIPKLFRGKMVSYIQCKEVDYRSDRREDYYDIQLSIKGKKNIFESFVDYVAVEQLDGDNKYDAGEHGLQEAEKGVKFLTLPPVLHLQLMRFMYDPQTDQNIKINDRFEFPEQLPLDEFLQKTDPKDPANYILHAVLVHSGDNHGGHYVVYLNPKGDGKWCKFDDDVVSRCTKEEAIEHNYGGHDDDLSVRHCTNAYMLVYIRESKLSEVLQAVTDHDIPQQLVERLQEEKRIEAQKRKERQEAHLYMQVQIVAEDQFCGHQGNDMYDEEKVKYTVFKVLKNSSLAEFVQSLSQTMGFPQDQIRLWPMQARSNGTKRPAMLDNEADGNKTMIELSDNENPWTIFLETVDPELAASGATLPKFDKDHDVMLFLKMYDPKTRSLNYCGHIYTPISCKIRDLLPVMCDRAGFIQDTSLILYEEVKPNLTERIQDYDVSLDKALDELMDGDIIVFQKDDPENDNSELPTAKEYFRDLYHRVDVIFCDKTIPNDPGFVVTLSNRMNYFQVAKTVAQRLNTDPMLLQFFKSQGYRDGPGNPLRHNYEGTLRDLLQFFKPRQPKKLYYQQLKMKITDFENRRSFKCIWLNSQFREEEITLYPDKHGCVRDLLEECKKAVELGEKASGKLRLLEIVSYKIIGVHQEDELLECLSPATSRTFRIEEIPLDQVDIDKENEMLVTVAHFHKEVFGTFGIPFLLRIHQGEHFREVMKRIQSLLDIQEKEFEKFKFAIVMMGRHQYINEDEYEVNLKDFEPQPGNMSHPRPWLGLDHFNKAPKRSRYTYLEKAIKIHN

| SMILES | IC50 |
| --- | --- |
| Cc1cc(Cl)cc(-c2ccnc3cc(Cn4c(=O)ccn(C)c4=O)sc23)c1O[C@@H]1CNC[C@@H]1F [Example 151, 3-((7-(5-Chloro-2-(((3R,4S)-4-fluoropyrrolidin-3-yl)oxy)-3-methylphenyl)thieno[3,2-b]pyridin-2-yl)methyl)-1-methylpyrimidine-2,4(1H,3H)-dione] | < 1 µM |
| Cc1cc(Cl)cc(-c2ccnc3cc(CN4C(=O)CCNC4=O)sc23)c1O[C@@H]1CNC[C@@H]1F [Example 152, 3-((7-(5-Chloro-2-(((3R,4S)-4-fluoropyrrolidin-3-yl)oxy)-3-methylphenyl)thieno[3,2-b]pyridin-2-yl)methyl)dihydropyrimidine-2,4(1H,3H)-dione] | < 1 µM |
| Cc1cc(Cl)cc(-c2ccnc3cc(Cn4c(=O)cc[nH]c4=O)sc23)c1O[C@@H]1CNC[C@@H]1F [Example 153, 3-((7-(5-Chloro-2-(((3R,4S)-4-fluoropyrrolidin-3-yl)oxy)-3-methylphenyl)thieno[3,2-b]pyridin-2-yl)methyl)pyrimidine-2,4(1H,3H)-dione] | < 1 µM |
| Cc1cc(Cl)cc(-c2ccnc3cc(CN4C(=O)NC(C)(C)C4=O)sc23)c1O[C@@H]1CNC[C@@H]1F [Example 154, 3-((7-(5-Chloro-2-(((3R,4S)-4-fluoropyrrolidin-3-yl)oxy)-3-methylphenyl)thieno[3,2-b]pyridin-2-yl)methyl)-5,5-dimethylimidazolidine-2,4-dione] | < 1 µM |
| Cc1cc(Cl)cc(-c2ccnc3cc(CN4C(=O)N(C)C(C)(C)C4=O)sc23)c1O[C@@H]1CNC[C@@H]1F [Example 155, 3-((7-(5-Chloro-2-(((3R,4S)-4-fluoropyrrolidin-3-yl)oxy)-3-methylphenyl)thieno[3,2-b]pyridin-2-yl)methyl)-1,5,5-trimethylimidazolidine-2,4-dione] | < 1 µM |
| Cc1cc(Cl)cc(-c2ccnc3c(F)c(CO)sc23)c1O[C@@H]1CNC[C@@H]1F [Example 156, (7-(5-Chloro-2-(((3R,4S)-4-fluoropyrrolidin-3-yl)oxy)-3-methylphenyl)-3-fluorothieno[3,2-b]pyridin-2-yl)methanol] | 1 to 10 µM |
| Cc1cc(Cl)cc(-c2ccnc3cc(CN4C(=O)CCC4=O)sc23)c1O[C@H]1CC[C@H](N2CCC2)C1 [Example 157, 1-((7-(2-(((1S,3S)-3-(Azetidin-1-yl)cyclopentyl)oxy)-5-chloro-3-methylphenyl)thieno[3,2-b]pyridin-2-yl)methyl)pyrrolidine-2,5-dione] | < 1 µM |
| Cc1cc(Cl)cc(-c2ncnc3cc(CN4C(=O)C5CCCC5C4=O)sc23)c1O[C@@H]1CNC[C@@H]1F (stereo partly drawn) [Example 158, 2-((4-(5-Chloro-2-(((3R,4S)-4-fluoropyrrolidin-3-yl)oxy)-3-methylphenyl)thieno[3,2-d]pyrimidin-6-yl)methyl)tetrahydrocyclopenta[c]pyrrole-1,3(2H,3aH)-dione] | < 1 µM |
| Cc1cc(Cl)cc(-c2ncnc3cc(CN4C(=O)C5CCCCC5C4=O)sc23)c1O[C@@H]1CNC[C@@H]1F (stereo partly drawn) [Example 159, 2-((4-(5-Chloro-2-(((3R,4S)-4-fluoropyrrolidin-3-yl)oxy)-3-methylphenyl)thieno[3,2-d]pyrimidin-6-yl)methyl)hexahydro-1H-isoindole-1,3(2H)-dione] | 1 to 10 µM |
| Cc1cc(Cl)cc(-c2ncnc3cc(CN4C(=O)C5CCCN5C4=O)sc23)c1O[C@@H]1CNC[C@@H]1F (stereo partly drawn) [Example 160, 2-((4-(5-Chloro-2-(((3R,4S)-4-fluoropyrrolidin-3-yl)oxy)-3-methylphenyl)thieno[3,2-d]pyrimidin-6-yl)methyl)tetrahydro-1H-pyrrolo[1,2-c]imidazole-1,3(2H)-dione] | 1 to 10 µM |
| Cc1cc(Cl)cc(-c2ccnc3cc(Cn4c(=O)ccn(C)c4=O)sc23)c1O[C@H]1CCCNC1 [Example 161, (S)-3-((7-(5-Chloro-3-methyl-2-(piperidin-3-yloxy)phenyl)thieno[3,2-b]pyridin-2-yl)methyl)-1-methylpyrimidine-2,4(1H,3H)-dione] | < 1 µM |
